Assay results: patent US20230202989A1, “COMPOUNDS” (JANSSEN PHARMACEUTICA NV, priority 2020, published 2023)
Where two headings read alike, the source gives them in different places.

Columns and labels:
IL-1β = assay: PBMC assay: inhibition of IL-1β release after LPS stimulation (MSD); format: cell-based; details: human PBMCs, 100 ng/ml LPS for 6 hrs, MSD, 96 well plates, read-out: IL1β IC50
Experimental: Peripheral venous blood s collected from health individuals and human peripheral blood mononuclear cells (PBMCs) ere isolated from blood by Ficoll Histopaque (Sigma-Aldrich, A0561) density gradient centrifugation. After isolation, PBMCs were stored in liquid nitrogen for later use. Upon thawing, PBMC cell viability was determined in growth medium (RPMI media supplemented with 10% fetal bovine serum, 1% Pen-Strep and 1% L-glutamine). […] PBMCs were added at a density of 7.5×10^4 cells per well and incubated for 30 min in a 5% CO2 incubator at 37° C. LPS stimulation was performed by addition of 100 ng/ml LPS (final concentration, Invivogen, tlrl-smlps) for 6 hrs followed by collection of cellular supernatant and the analysis of IL-1β (μM) and TNF cytokines levels (μM) via MSD technology according to manufacturers' guidelines (MSD, K151A0H).
(§1) The IC50 values (for IL-1β) and EC50 values (TNF) were obtained on compounds of the invention/examples, and are depicted in the following table: […]

TNF = assay: PBMC assay: TNF cytokine levels after LPS stimulation (MSD); format: cell-based; details: human PBMCs, 100 ng/ml LPS for 6 hrs
Experimental: Peripheral venous blood s collected from health individuals and human peripheral blood mononuclear cells (PBMCs) ere isolated from blood by Ficoll Histopaque (Sigma-Aldrich, A0561) density gradient centrifugation. After isolation, PBMCs were stored in liquid nitrogen for later use. Upon thawing, PBMC cell viability was determined in growth medium (RPMI media supplemented with 10% fetal bovine serum, 1% Pen-Strep and 1% L-glutamine). Compounds were spotted in a 1:3 serial dilution in DMSO and diluted to the final concentration in 30 μl medium in 96 well plates (Falcon, 353072). PBMCs were added at a density of 7.5×10^4 cells per well and incubated for 30 min in a 5% CO2 incubator at 37° C. LPS stimulation was performed by addition of 100 ng/ml LPS (final concentration, Invivogen, tlrl-smlps) for 6 hrs followed by collection of cellular supernatant and the analysis of IL-1β (μM) and TNF cytokines levels (μM) via MSD technology according to manufacturers' guidelines (MSD, K151A0H).
as §1

SMILES | IC50 (IL-1β; Homo sapiens, PBMC, 6 h) [nM] | EC50 (TNF; Homo sapiens, PBMC, 6 h) [nM] | IC50 (IL-1β) [nM] | EC50 (TNF) [nM]
O=C(Cn1nc(C2CC2)c2cc(C(F)(F)F)ccc2c1=O)N[C@H]1CN(C2CC2)CC[C@H]1O [Final Cpd X45] | 384 | > 20000 | – | –
CC(C)c1nn(CC(=O)N[C@H]2CC[C@@](C)(O)CC2)c(=O)c2ccc(C(F)(F)F)cc12 [Final Cpd X46] | 388 | > 20000 | – | –
O=C(Cn1nc(C(F)F)c2cc(C(F)(F)F)ccc2c1=O)Nc1ccncn1 [Final Cpd X50] | 438 | > 20000 | – | –
CC(C)c1nn(CC(=O)Nc2ccn3ccnc3c2)c(=O)c2ccc(C(F)(F)F)cc12 [Final Cpd X54] | 451 | > 20000 | – | –
CC(C)c1nn(CC(=O)N[C@H]2CCc3nncn3C2)c(=O)c2ccc(C(F)(F)F)cc12 [Final Cpd X55] | 460 | > 20000 | – | –
CC(C)c1nn(CC(=O)N[C@H]2CC[C@@H]2O)c(=O)c2ccc(C(F)(F)F)cc12 [Final Cpd X56] | 493 | > 20000 | – | –
CC(=O)c1nn(CC(=O)Nc2ccc3nncn3c2)c(=O)c2ccc(C(F)(F)F)cc12 [Final Cpd X58] | 551 | > 20000 | – | –
CC(c1nn(CC(=O)Nc2ccc3nncn3c2)c(=O)c2ccc(C(F)(F)F)cc12)C(F)(F)F (centres unmarked) [Final Cpd X59] | 561 | > 20000 | – | –
CC(C)c1nn(CC(=O)N[C@H]2CCCN3CCC[C@@H]23)c(=O)c2ccc(C(F)(F)F)cc12 [Final Cpd X60] | 585 | > 20000 | – | –
O=C(Cn1nc(C(O)C(F)(F)F)c2cc(C(F)(F)F)ccc2c1=O)Nc1ccc2nncn2c1 (centres unmarked) [Final Cpd X61] | 588 | > 20000 | – | –
CC(C)c1nn(CC(=O)Nc2ccc3nc(C(F)(F)F)cn3c2)c(=O)c2ccc(C(F)(F)F)cc12 [Final Cpd X64, 2-(4-isopropyl-1-oxo-6-(trifluoromethyl)phthalazin-2(1H)-yl)-N-(2-(trifluoromethyl)imidazo[1,2-a]pyridin-6-yl)acetamide] | 668 | > 20000 | – | –
CC(C)c1nn(CC(=O)N[C@H]2C[C@](O)(C(F)(F)F)C2)c(=O)c2ccc(C(F)(F)F)cc12 [Final Cpd X65] | – | – | 668 | > 20000
CC(O)c1nn(CC(=O)Nc2ccc3nncn3c2)c(=O)c2ccc(C(F)(F)F)cc12 (centres unmarked) [Final Cpd X66] | 670 | > 20000 | – | –

Other lines, results leading:

IC50 (IL-1β; Homo sapiens, PBMC, 6 h) [nM] | EC50 (TNF; Homo sapiens, PBMC, 6 h) [nM] | IC50 (IL-1β) [nM] | EC50 (TNF) [nM] | SMILES
394 | > 20000 | – | – | CC(C)c1nn(CC(=O)Nc2ccc3ncn(C)c3n2)c(=O)c2ccc(C(F)(F)F)cc12 [Final Cpd X47, 2-(4-isopropyl-1-oxo-6-(trifluoromethyl)phthalazin-2(1H)-yl)-N-(3-methyl-3H-imidazo[4,5-b]pyridin-5-yl)acetamide]
398 | > 20000 | – | – | Cc1ncc2ccc(NC(=O)Cn3nc(C(C)C)c4cc(C(F)(F)F)ccc4c3=O)cn12 [Final Cpd X48]
400 | 9700 | – | – | CC(C)c1nn(CC(=O)Nc2ccc3nnn(C)c3c2)c(=O)c2ccc(C(F)(F)F)cc12 [Final Cpd X49]
440 | > 20000 | – | – | Cc1cc(NC(=O)Cn2nc(C(C)C)c3cc(C(F)(F)F)ccc3c2=O)nn(C)c1=O [Final Cpd X51]
442 | > 20000 | – | – | CC(C)c1nn(CC(=O)Nc2cc(Br)c3nncn3c2)c(=O)c2ccc(C(F)(F)F)cc12 [Final Cpd X52, N-(8-Bromo-[1,2,4]triazolo[4,3-a]pyridin-6-yl)-2-(4-isopropyl-1-oxo-6-(trifluoromethyl)phthalazin-2(1H)-yl)acetamide]
444 | > 20000 | – | – | Cc1cn2nc(NC(=O)Cn3nc(C(C)C)c4cc(C(F)(F)F)ccc4c3=O)ccc2n1 [Final Cpd X53]
545 | > 20000 | – | – | Cc1nc2ccc(NC(=O)Cn3nc(C(C)C)c4cc(C(F)(F)F)ccc4c3=O)cn2n1 [Final Cpd X57]
591 | > 20000 | – | – | COCCn1nc(NC(=O)Cn2nc(C(C)C)c3cc(C(F)(F)F)ccc3c2=O)ccc1=O [Final Cpd X62]
600 | > 20000 | – | – | CC(C)c1nn(CC(=O)Nc2ccc3nnc(Cl)n3n2)c(=O)c2ccc(C(F)(F)F)cc12 [Final Cpd X63]
